According to US20260048046A1, “METHOD FOR IMPROVING GROWTH PERFORMANCE IN FEEDLOT CATTLE” (Elanco US Inc., priority 2022, published 2026):
Entries after “also recorded” stand apart in the source; their conditions may differ.

System: beef cattle
Assay: 91-d study: carcass characteristics
Assay type: in vivo
Details: for Adjusted fat thickness / Calculated yield grade / HGW / IM area / KPH / Dressing percentage / Lean maturity / Overall maturity / Skeletal maturity / Marbling score: 91-d treatment, LS mean; for Dressing percentage: unshrunk BW basis; for Lean maturity / Overall maturity / Skeletal maturity: 100 A, 200 B maturity; for Marbling score: 500 Small, 600 Modest
Excerpt: A randomized complete block design was used to evaluate the effect of lubabegron (LUB) on performance over a 91-d period using 336 beef cattle (BW=453±34.5 kg) housed in cattle pen enclosures (CPE). Four LUB treatments were included in the study based on dose: 0.0 (control or CON), 1.38, 5.5, and 22.0 (mg·kg^−1 of DM). Because there was a limited number of CPE (n=8), three sequential cycles (blocks) were required to generate 6 replicates of each dose×sex combination. As such, 112 cattle (56 steers and 56 heifers) were housed concurrently within each cycle across the eight CPE (14 cattle/CPE), with each dose×sex combination being represented by a single CPE/cycle. To assure different frame sizes of cattle were represented, cattle in cycles one and three were large-frame Continental crossbreds, whereas cattle in cycle 2 were medium-frame British crossbreds.
On day 91, cattle were loaded onto double-decked aluminum semi-trailers and transported ˜1,000 km to a commercial abattoir where they were slaughtered following an ˜5 to 9 h lairage. Carcass identification was maintained throughout the slaughter process by recording ear tag sequence at stunning and then cross-matching to sequentially numbered carcass tags. Hot carcass weights and KPH were measured following industry standard processing, and yield grade (YG) and quality grade data were collected from left carcass sides by trained university personnel after 22 h in a spray-chill system.
Data were analyzed using version 9.2 of SAS (SAS Institute, Cary, NC), and the individual CPE were considered the experimental unit. Continuous variables were analyzed using PROC MIXED, with treatment (LUB dose), sex, and the dose×sex interaction as fixed effects, and cycle as the random effect included in the model. If the dose×sex interaction was not significant (P>0.05), the main effect of dose pooled across sexes was evaluated. When the main effect of dose was significant (P≤0.05) or tended to be significant (0.05≤P≤0.10), planned contrasts comparing each LUB dose to CON were performed in a pairwise fashion. If the dose×sex was significant (P≤0.05) planned contrasts comparing each LUB dose to CON within sex were performed in a pairwise fashion. Treatment means were estimated using the LSMEANS statement.
Discrete variables were analyzed with a generalized linear mixed model using a binomial distribution and logit link function in PROC GLIMMIX. The classification of fixed and random effects and the handling of interactions and pairwise comparisons were performed in a similar manner as the continuous variables. Statistical analyses for YG were performed on both continuous and discrete (YG 1=1.00 to 1.99, YG 2=2.00 to 2.99, and so on) forms of data, and quality grades were further sorted into the five categories routinely used for determining premium or discount adjustments when cattle are marketed on a grid-based system (U.S. Prime, upper 2/3 Choice, low Choice, Select, and Standard). […] Fisher's exact test was performed using PROC FREQ to evaluate the frequency distribution of the CON cattle compared with LUB. Statistical significance for the main effects of dose was determined by P≤0.05 and tendencies were declared when 0.05≤P≤0.10.

CC(C)(Cc1ccc(Oc2ncccc2C#N)cc1)NC[C@H](O)COc1ccccc1-c1cccs1 [LUB, 2-{4-[2-({(2S)-2-Hydroxy-3-[2-(2-thienyl)phenoxy]propyl}amino)-2-methylpropyl]phenoxy}nicotinonitrile]
Effect of LUB treatment on skeletal, lean, or overall maturity (91 d, P≥0.262): no effect | Probability of cattle producing a YG3 carcass (91 d, YG as discrete variable, CON vs LUB-fed): greater (P<0.019) for CON-than LUB-fed cattle | Probability of cattle producing YG1, YG2, or YG4 carcasses (91 d, across treatments, P≥0.233): similar | Effect of LUB treatment on calculated YG (91 d, all LUB doses vs CON, P=0.155): no effect | Effect of LUB treatment on adjusted fat thickness (91 d, all LUB doses vs CON, P=0.579): not affected; also recorded: no change | Dark cutter incidence (91 d, only a single carcass over the entire study): not influenced by treatment | Increased HCW (LUB 1.38 mg·kg^−1 DM (first of the respective treatments), 91 d): 15 kg animal-1 | Adjusted fat thickness (LUB 1.38 mg·kg^−1 DM): 1.15 cm | Calculated yield grade (LUB 1.38 mg·kg^−1 DM): 2.37 | HGW (LUB 1.38 mg·kg^−1 DM): 364 kg | IM area (LUB 1.38 mg·kg^−1 DM): 94.8 cm^2 | KPH (LUB 1.38 mg·kg^−1 DM): 1.99% | Dressing percentage (LUB 1.38 mg·kg^−1 DM): 62.4% | Lean maturity (LUB 1.38 mg·kg^−1 DM): 163 | Overall maturity (LUB 1.38 mg·kg^−1 DM): 168 | Skeletal maturity (LUB 1.38 mg·kg^−1 DM): 170 | Marbling score (LUB 1.38 mg·kg^−1 DM): 573 | Increased HCW (LUB 5.5 mg·kg^−1 DM (second of the respective treatments), 91 d): 16 kg animal-1 | Adjusted fat thickness (LUB 5.5 mg·kg^−1 DM): 1.24 cm | Calculated yield grade (LUB 5.5 mg·kg^−1 DM): 2.41 | HGW (LUB 5.5 mg·kg^−1 DM): 365 kg | KPH (LUB 5.5 mg·kg^−1 DM): 1.96% | Dressing percentage (LUB 5.5 mg·kg^−1 DM): 62.7% | Lean maturity (LUB 5.5 mg·kg^−1 DM): 167 | Overall maturity (LUB 5.5 mg·kg^−1 DM): 169 | Skeletal maturity (LUB 5.5 mg·kg^−1 DM): 170 | Marbling score (LUB 5.5 mg·kg^−1 DM): 560 | Increased HCW (LUB 22.0 mg·kg^−1 DM (third of the respective treatments), 91 d): 16 kg animal-1 | Adjusted fat thickness (LUB 22.0 mg·kg^−1 DM): 1.19 cm | Calculated yield grade (LUB 22.0 mg·kg^−1 DM): 2.25 | HGW (LUB 22.0 mg·kg^−1 DM): 365 kg | IM area (LUB 22.0 mg·kg^−1 DM): 96.8 cm^2 | KPH (LUB 22.0 mg·kg^−1 DM): 1.61% | Dressing percentage (LUB 22.0 mg·kg^−1 DM): 62.8% | Lean maturity (LUB 22.0 mg·kg^−1 DM): 163 | Overall maturity (LUB 22.0 mg·kg^−1 DM): 168 | Skeletal maturity (LUB 22.0 mg·kg^−1 DM): 172 | Marbling score (LUB 22.0 mg·kg^−1 DM): 562 | Carcass weights heavier than CON (cattle fed LUB (1.38, 5.5, 22.0 mg·kg^−1 DM), 91 d): about 15 kg | Probability of grading high Choice vs CON (cattle fed LUB, 91 d, P=0.004): lower | Probability of grading low Choice vs CON (cattle fed LUB, 91 d, P=0.021): greater
